Values joined by “and” are separate entries in the source; they are usually repeats but may differ in a detail not shown here. Equal entries are not always repeated. Inconclusive results and toxic doses are left out. Rule for the calls: active = survival T/C of 150% or more; inactive = T/C below 125% in these data.
Test system: AKR/Lw mice, AKR lymphoma ip, median survival T/C
Experiment: NCI In Vivo Anticancer Drug Screen. Data for tumor model Lymphoma AKR (Transplanted) (intraperitoneal) in AKR/Lw mice
Conditions: endpoint: median survival time, higher = longer survival
Description: The antitumor activity of compounds was measured in mice bearing transplantable tumors. Survival or tumor size were measured and the results are expressed as the measurement made in the treated group (T) divided by the measurement made in the vehicle treated control group (C). The tumor model used in this assay is Lymphoma AKR (Transplanted) (intraperitoneal) in AKR/Lw mice

[1] = dose: 50.0 mg/kg/injection, schedule: Q01DX001 (ip), vehicle: saline
[2] = dose: 100.0 mg/kg/injection, schedule: Q01DX001 (ip), vehicle: saline
[3] = dose: 200.0 mg/kg/injection, schedule: Q01DX001 (ip), vehicle: saline
[4] = dose: 100.0 mg/kg/injection, schedule: Q01DX001 (ip), vehicle: Klucel (hydroxypropylcellulose) (HPC)

Measured: T/C

NC(=O)NO
inactive: dose: 15.6 mg/kg/injection, schedule: Q06HX012 (ip), vehicle: saline 93 % of control | dose: 15.6 mg/kg/injection, schedule: Q06HX016 (ip), vehicle: saline 96 % of control | dose: 25.0 mg/kg/injection, schedule: Q06HX012 (ip), vehicle: saline 100 % of control | dose: 31.25 mg/kg/injection, schedule: Q06HX012 (ip), vehicle: saline 96 % of control | dose: 50.0 mg/kg/injection, schedule: Q01DX009 (ip), vehicle: saline 94 % of control | dose: 50.0 mg/kg/injection, schedule: Q06HX012 (ip), vehicle: saline 100 % of control | dose: 62.5 mg/kg/injection, schedule: Q06HX004 (ip), vehicle: saline 92 % of control and 100 % of control | dose: 62.5 mg/kg/injection, schedule: Q06HX008 (ip), vehicle: saline 93 % of control | dose: 62.5 mg/kg/injection, schedule: Q06HX012 (ip), vehicle: saline 93 % of control | dose: 62.5 mg/kg/injection, schedule: Q06HX016 (ip), vehicle: saline 100 % of control | dose: 75.0 mg/kg/injection, schedule: Q06HX012 (ip), vehicle: saline 96 % of control | dose: 100.0 mg/kg/injection, schedule: Q06HX008 (ip), vehicle: saline 92 % of control | dose: 100.0 mg/kg/injection, schedule: Q06HX012 (ip), vehicle: saline 88 % of control

O=NN(CCCl)C(=O)N[C@H]1CCCC[C@@H]1Cl
inactive: dose: 5.0 mg/kg/injection, schedule: Q04DX004 (ip), vehicle: Klucel (hydroxypropylcellulose) (HPC) 123 % of control | dose: 5.0 mg/kg/injection, schedule: Q04DX004 (ip), vehicle: saline 117 % of control | dose: 20.0 mg/kg/injection, schedule: Q04DX004 (ip), vehicle: Klucel (hydroxypropylcellulose) (HPC) 97 % of control

Cc1c(C(=O)O)cc2n(c1=O)Cc1cc3ccccc3nc1-2
inactive: [1] 102 % of control | dose: 50.0 mg/kg/injection, schedule: Q04DX003 (ip), vehicle: saline with Tween-80 93 % of control | [2] 100 % of control | dose: 100.0 mg/kg/injection, schedule: Q04DX003 (ip), vehicle: saline with Tween-80 100 % of control | [3] 94 % of control

COc1cccc2c1C(=O)c1c(O)c3c(c(O)c1C2=O)C[C@@](O)(C(=O)CO)C[C@@H]3OC1CC(N)C(O)C(C)O1 (some centres undefined)
inactive: dose: 0.12 mg/kg/injection, schedule: Q01DX006 (sc), vehicle: saline 110 % of control | dose: 0.25 mg/kg/injection, schedule: Q01DX006 (ip), vehicle: saline 107 % of control | dose: 0.25 mg/kg/injection, schedule: Q01DX006 (sc), vehicle: saline 97 % of control | dose: 0.5 mg/kg/injection, schedule: Q01DX006 (ip), vehicle: saline 115 % of control | dose: 0.5 mg/kg/injection, schedule: Q01DX006 (sc), vehicle: saline 109 % of control (2×) and 110 % of control | dose: 0.5 mg/kg/injection, schedule: Q04DX003 (sc), vehicle: saline 105 % of control | dose: 0.9 mg/kg/injection, schedule: Q04DX003 (sc), vehicle: saline 105 % of control | dose: 1.0 mg/kg/injection, schedule: Q01DX006 (ip), vehicle: saline 115 % of control | dose: 1.0 mg/kg/injection, schedule: Q01DX006 (sc), vehicle: saline 117 % of control | dose: 1.5 mg/kg/injection, schedule: Q01DX006 (sc), vehicle: saline 110 % of control and 114 % of control (2×) | dose: 2.6 mg/kg/injection, schedule: Q04DX003 (sc), vehicle: saline 97 % of control

COc1ccc2c3c(ccc2c1)C(=O)C(C)(C#N)CC3 (centres undefined)
inactive: dose: 37.5 mg/kg/injection, schedule: Q01DX001 (ip), vehicle: Klucel (hydroxypropylcellulose) (HPC) 92 % of control | dose: 75.0 mg/kg/injection, schedule: Q01DX001 (ip), vehicle: Klucel (hydroxypropylcellulose) (HPC) 94 % of control | dose: 150.0 mg/kg/injection, schedule: Q01DX001 (ip), vehicle: Klucel (hydroxypropylcellulose) (HPC) 100 % of control | dose: 300.0 mg/kg/injection, schedule: Q01DX001 (ip), vehicle: Klucel (hydroxypropylcellulose) (HPC) 107 % of control

CO[C@H](C(=O)[C@@H](O)[C@@H](C)O)[C@@H]1Cc2cc3cc(OC4CC(OC5CC(O)C(O)C(C)O5)C(O)C(C)O4)c(C)c(O)c3c(O)c2C(=O)[C@H]1OC1CC(OC2CC(OC3CC(C)(O)C(O)C(C)O3)C(O)C(C)O2)C(O)C(C)O1 (some centres undefined)
inactive: dose: 0.12 mg/kg/injection, schedule: Q01DX009 (ip), vehicle: saline 115 % of control | dose: 0.25 mg/kg/injection, schedule: Q01DX009 (ip), vehicle: water 95 % of control | dose: 0.5 mg/kg/injection, schedule: Q01DX009 (ip), vehicle: water 110 % of control

C/C=C(/C)N(C(C)=O)N(C(C)=O)c1ccc([N+](=O)[O-])cc1[N+](=O)[O-]
inactive: [4] 93 % of control | dose: 200.0 mg/kg/injection, schedule: Q01DX001 (ip), vehicle: Klucel (hydroxypropylcellulose) (HPC) 93 % of control | dose: 200.0 mg/kg/injection, schedule: Q04DX003 (ip), vehicle: Klucel (hydroxypropylcellulose) (HPC) 93 % of control | dose: 400.0 mg/kg/injection, schedule: Q01DX001 (ip), vehicle: Klucel (hydroxypropylcellulose) (HPC) 93 % of control

Cc1cnc2c(N)[nH]nc2n1
inactive: dose: 25.0 mg/kg/injection, schedule: Q01DX001 (ip), vehicle: Klucel (hydroxypropylcellulose) (HPC) 100 % of control | dose: 50.0 mg/kg/injection, schedule: Q01DX001 (ip), vehicle: Klucel (hydroxypropylcellulose) (HPC) 97 % of control | [4] 106 % of control

COc1cc2ccc(CCNCc3ccccc3)cc2cc1OC
inactive: dose: 25.0 mg/kg/injection, schedule: Q04DX003 (ip), vehicle: saline sonified 92 % of control | dose: 50.0 mg/kg/injection, schedule: Q04DX003 (ip), vehicle: saline sonified 95 % of control | [2] 116 % of control | dose: 100.0 mg/kg/injection, schedule: Q04DX003 (ip), vehicle: saline sonified 92 % of control

O=C1CC2CCCC(C1)S2=O (centres undefined)
inactive: [2] 113 % of control | [3] 89 % of control | dose: 400.0 mg/kg/injection, schedule: Q01DX001 (ip), vehicle: saline 97 % of control

OCC1OC(n2cnc3c(Cl)ncnc32)C(O)C1O (centres undefined)
inactive: dose: 6.2 mg/kg/injection, schedule: Q01DX009 (ip), vehicle: saline 100 % of control | dose: 12.5 mg/kg/injection, schedule: Q01DX009 (ip), vehicle: saline 94 % of control and 96 % of control and 105 % of control | dose: 25.0 mg/kg/injection, schedule: Q04DX003 (ip), vehicle: saline 93 % of control | [1] 100 % of control | dose: 50.0 mg/kg/injection, schedule: Q04DX003 (ip), vehicle: saline 100 % of control and 113 % of control and 116 % of control | [2] 94 % of control and 102 % of control and 110 % of control | dose: 100.0 mg/kg/injection, schedule: Q04DX003 (ip), vehicle: other 88 % of control | dose: 150.0 mg/kg/injection, schedule: Q04DX003 (ip), vehicle: saline 100 % of control | dose: 200.0 mg/kg/injection, schedule: Q01DX009 (ip), vehicle: saline 87 % of control and 101 % of control and 102 % of control | dose: 200.0 mg/kg/injection, schedule: Q04DX003 (ip), vehicle: other 113 % of control | dose: 250.0 mg/kg/injection, schedule: Q04DX003 (ip), vehicle: saline 118 % of control | dose: 400.0 mg/kg/injection, schedule: Q01DX009 (ip), vehicle: saline 90 % of control and 96 % of control | dose: 400.0 mg/kg/injection, schedule: Q04DX003 (ip), vehicle: other 119 % of control and 123 % of control | dose: 500.0 mg/kg/injection, schedule: Q04DX003 (ip), vehicle: saline 88 % of control | dose: 600.0 mg/kg/injection, schedule: Q01DX001 (ip), vehicle: saline 90 % of control and 92 % of control | dose: 600.0 mg/kg/injection, schedule: Q04DX003 (ip), vehicle: saline 90 % of control (2×) and 113 % of control

Reference: PubChem BioAssay AID190 (DTP/NCI, 2004)
